We go through 15 compounds from patent US8580833B2, “Substituted imidazole derivatives and methods of use thereof” (TransTech Pharma, Inc., priority 2009, dated 2013).

For data set [1], the target named is T1, RAGE (sRAGE) with β-amyloid as the RAGE ligand (Homo sapiens, UniProt Q15109).
T1 construct: generate soluble RAGE (sRAGE) comprised of the V and C domains
The data set is described as follows: ELISA: inhibition of sRAGE binding to plate-bound β-amyloid. The note with it: sRAGE 6 nM, hydrochloride salt form. How it is done: (§1) The following assay method may be used to identify compounds of Formula (I) or pharmaceutically acceptable salts thereof which are useful as inhibitors of binding of physiological RAGE ligands, such as S100b and β-amyloid, to RAGE.
(§2) S100b, β-amyloid, or CML (500 ng/100 μL/well) in 100 mM sodium bicarbonate/sodium carbonate buffer (pH 9.8) is loaded onto the wells of a NUNC Maxisorp flat bottom 96-well microtitre plate. The plate is incubated at 4° C. overnight. The wells are aspirated and treated with 50 mM imidazole buffer saline (pH 7.2) (with 5 mM CaCl2/MgCl2) containing 1% bovine serum albumin (BSA) (300 μL/well) for 1 h at RT. The wells are aspirated.
(§3) Test compounds are dissolved in nanopure water (concentration: 10-100 μM). DMSO may be used as co-solvent. 25 μL of test compound solution in 4% DMSO is added, along with 75 μL sRAGE (6 nM FAC) to each well and samples are incubated for 1 h at 37° C. The wells are washed several times with 155 mM NaCl pH 7.2 buffer saline and are soaked for several seconds between each wash.
(§4) Non-radioactive detection is performed by adding:
(§5) 10 μL Biotinylated goat F(ab′)2 Anti-mouse IgG. (8.0×10-4 mg/mL, FAC), 5 μL Alk-phos-Streptavidin (3×10-3 mg/mL FAC), 0.42 μL per 5 mL Monoclonal antibody for sRAGE (FAC 6.0×10-3 mg/mL) to 5 mL 50 mM imidazole buffer saline (pH 7.2) containing 0.2% bovine serum albumin and 5 mM CaCl2. The mixture is incubated for 30 minutes at RT.
(§6) 100 μL of complex is added to each well and incubation is allowed to proceed at rt for 1 h. Wells are washed several times with wash buffer and soaked several seconds between each wash. 100 μL 1 mg/mL (pNPP) in 1 M diethanolamine (pH adjusted to 9.8 with HCl) is added. Color is allowed to develop in the dark for 30 min to 1 h at rt. The reaction is quenched with 10 μL of stop solution (0.5-1.0 N NaOH in 50% ethanol) and the absorbance is measured spectrophotometrically with a microplate reader at 405 nm.
(§7) IC50 (μM) of in the ELISA assay represents the concentration of compound at which 50% signal has been inhibited.
In general terms: An ELISA detects its analyte on a solid surface through an enzyme-linked reagent.

Data set [2] deals with T2, RAGE (sRAGE) with S100b as the RAGE ligand (Homo sapiens, UniProt Q15109).
T2 construct: generate soluble RAGE (sRAGE) comprised of the V and C domains
The data set is described as follows: ELISA: inhibition of sRAGE binding to plate-bound S100b. The note with it: sRAGE 6 nM, hydrochloride salt form. How it is done: as §1, §2, §3, §4, §5, §6, §7

Data set [3] can be described thus: Pharmacokinetic screening in rats, brain and plasma concentrations at 6 hour time point. The class given is in vivo. Particulars: male, Sprague Dawley, rat, 5 mg/kg oral (PO), 6 hour time point; for concentration at 6 h: 2% Tween 80 in distilled water; for Kp at 6 h: brain/plasma ratio, read-out: B/P Ratio. How it is done: Pharmacokinetic screening in rats was performed on various compounds to measure brain and plasma concentrations at 6 hour time point.
The parameters for the pharmacokinetic protocol were as follows.
Amount of compound: 5 mg/kg
Species: Rat; Strain: Sprague Dawley; Sex: Male
Average body weight at dose: weight ranged from 271 to 423 grams
Average age at dose: age ranged from 9 to 14 weeks
Diet Status Overnight fasting
Number of Animals (n) for each time point: 2
Formulation: 2% Tween 80 in distilled water
Each formulation was administered once by oral gavage. The dose volume was 5 mL/kg for all animals. The actual volume administered to each animal was calculated and adjusted based on the most recent body weight.
Blood samples (approximately 300 μL whole blood) at (1, 2, and 4 h) was collected from each animal via tail vein except for terminal blood samples. Terminal blood (6 h) samples were collected via cardiac puncture. All samples were collected into tubes containing lithium heparin (Multivette 600 LH-Gel, Sarstedt, Newton, N.C., USA). Following collection, the tubes were placed in refrigerator (maximum 30 minutes) or until centrifugation under refrigeration (at 2 to 8° C.) at 1500 g for approximately 15 minutes. Each harvested plasma sample was then transferred into 1.2 mL polypropylene tubes, on the 96-Well Plate according to the 96-Well Plate plasma sample map and kept in freezer. Plasma samples were then analyzed for test substances.
Brain samples were collected immediately after the animals were euthanized at designated time points. Brain samples were rinsed with saline, blotted dry, and weighed. Brain samples were placed into individual containers and kept in freezer (−20° C.). Brain samples were then analyzed for test articles.
After analysis, all the plasma results are reported as ng/mL and brain sample results are reported as ng/g. In the table below, “ND” stands for not determined and “NA” stands for not applicable.

The mark [4] stands for this setting: brain, read-out: Brain concentration.
[5] abbreviates: plasma, read-out: Plasma concentration.

Structures can show the parent of a compound that is named as a salt. Where two headings read alike, the source gives them in different places.

T2 sequence (Q15109 23-342 limits assumed): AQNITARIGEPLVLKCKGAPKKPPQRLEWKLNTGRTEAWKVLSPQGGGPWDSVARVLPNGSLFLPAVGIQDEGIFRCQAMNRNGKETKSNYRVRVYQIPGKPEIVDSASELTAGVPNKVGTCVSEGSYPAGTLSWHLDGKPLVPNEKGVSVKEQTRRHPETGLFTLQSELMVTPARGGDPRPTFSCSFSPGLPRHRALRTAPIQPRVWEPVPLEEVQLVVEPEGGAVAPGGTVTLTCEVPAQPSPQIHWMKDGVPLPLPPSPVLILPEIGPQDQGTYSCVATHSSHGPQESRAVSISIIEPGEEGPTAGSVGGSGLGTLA
T1 sequence (Q15109 23-342 limits assumed): as above

In general, IC50 refers to the concentration needed to halve the response being measured. Take `CCOCc1nc(-c2ccc(OC[C@H](O)CNC)cc2)cn1-c1ccc(Oc2ccc(Cl)cc2)cc1` [Example 13, (R)-1-(4-{1-[4-(4-chloro-phenoxy)-phenyl]-2-ethoxymethyl-1H-imidazol-4-yl}-phenoxy)-3-methylamino-propan-2-ol dihydrochloride]: the values for the IC50 in data set [1] and in data set [2] were 2.16 µM and 4.61 µM, respectively.
Turning to `CCCCc1nc(-c2ccc(OC[C@@H](O)CN(C)C)cc2)cn1-c1ccc(Oc2ccc(Cl)cc2)cc1` [Example 3, (S)-1-(4-{2-butyl-1-[4-(4-chloro-phenoxy)-phenyl]-1H-imidazol-4-yl}-phenoxy)-3-dimethylamino-propan-2-ol dihydrochloride], the results for the concentration at 6 h in data set [3] (setting [4]) and in data set [3] (setting [5]) were 1120 ng/g and 0.048 µg/mL, respectively. Also, in data set [3], the Kp at 6 h is 23.3. Moreover, the results for the IC50 in data set [1] and in data set [2] were 0.8 µM and 0.84 µM, respectively.
The corresponding values for `CCCCc1nc(-c2ccc(OC[C@@H](O)CNC)cc2)cn1-c1ccc(Oc2ccc(Cl)cc2)cc1` [Example 10, (S)-1-(4-{2-butyl-1-[4-(4-chloro-phenoxy)-phenyl]-1H-imidazol-4-yl}-phenoxy)-3-methylamino-propan-2-ol dihydrochloride] are 212 ng/g, 0.074 µg/mL, 2.9, 1.32 µM and 1.14 µM.
`CCCCc1nc(-c2ccc(OC[C@H](O)CNCC)cc2)cn1-c1ccc(Oc2ccc(Cl)cc2)cc1` [Example 11, (R)-1-(4-{2-butyl-1-[4-(4-chloro-phenoxy)-phenyl]-1H-imidazol-4-yl}-phenoxy)-3-ethylamino-propan-2-ol dihydrochloride]: the concentration at 6 h in data set [3] (setting [4]) is 343 ng/g; in data set [3] (setting [5]) it was 0.072 µg/mL. Moreover, the Kp at 6 h in data set [3] stood at 4.8. Further, the 50% inhibitory concentration (IC50) in data set [1] was found to be 1.02 µM; in data set [2], 0.81 µM.
The corresponding values for `CCCCc1nc(-c2ccc(OC[C@H](O)CN(CC)CC)cc2)cn1-c1ccc(Oc2ccc(Cl)cc2)cc1` [Example 2, (R)-1-(4-{2-butyl-1-[4-(4-chloro-phenoxy)-phenyl]-1H-imidazol-4-yl}-phenoxy)-3-diethylamino-propan-2-ol dihydrochloride] are 718 ng/g, 0.024 µg/mL, 30.6, 0.76 µM and 0.55 µM.
The corresponding values for `CCOCc1nc(-c2ccc(OC[C@@H](O)CN(C)C)cc2)cn1-c1ccc(Oc2ccc(Cl)cc2)cc1` [Example 6, (S)-1-(4-{1-[4-(4-chloro-phenoxy)-phenyl]-2-ethoxymethyl-1H-imidazol-4-yl}-phenoxy)-3-dimethylamino-propan-2-ol dihydrochloride] are 3900 ng/g, 0.155 µg/mL, 25.3, 0.78 µM and 0.77 µM.
Turning to `CCCCc1nc(-c2ccc(OC[C@@H](O)CNCC)cc2)cn1-c1ccc(Oc2ccc(Cl)cc2)cc1` [Example 12, (S)-1-(4-{2-butyl-1-[4-(4-chloro-phenoxy)-phenyl]-1H-imidazol-4-yl}-phenoxy)-3-ethylamino-propan-2-ol dihydrochloride], the concentration at 6 h in data set [3] (setting [4]) came to 540 ng/g; in data set [3] (setting [5]), 0.124 µg/mL. Also, the Kp at 6 h in data set [3] is 4.5. Further, the values for the half-maximal inhibitory concentration (IC50) in data set [1] and in data set [2] were 1.19 µM and 0.98 µM, respectively.
With `CCCCc1nc(-c2ccc(OC[C@@H](O)CN(CC)CC)cc2)cn1-c1ccc(Oc2ccc(Cl)cc2)cc1` [Example 4, (S)-1-(4-{2-butyl-1-[4-(4-chloro-phenoxy)-phenyl]-1H-imidazol-4-yl}-phenoxy)-3-diethylamino-propan-2-ol dihydrochloride], the concentration at 6 h in data set [3] (setting [4]) was found to be 610 ng/g; in data set [3] (setting [5]), 0.074 µg/mL. The Kp at 6 h in data set [3] was found to be 8.8. Further, the IC50 in data set [1] worked out at 0.65 µM; in data set [2], 0.54 µM.
For the compound `CCOCc1nc(-c2ccc(OC[C@@H](O)CN(CC)CC)cc2)cn1-c1ccc(Oc2ccc(Cl)cc2)cc1` [Example 8, (S)-1-(4-{1-[4-(4-chloro-phenoxy)-phenyl]-2-ethoxymethyl-1H-imidazol-4-yl}-phenoxy)-3-diethylamino-propan-2-ol dihydrochloride], the concentration at 6 h stood at 2700 ng/g in data set [3] (setting [4]) and 0.137 µg/mL in data set [3] (setting [5]). Also, in data set [3], the Kp at 6 h stood at 19.6. The IC50 is 1.26 µM in data set [1] and 0.8 µM in data set [2].
Taken in the same sequence, the figures for `CCOCc1nc(-c2ccc(OC[C@H](O)CN(CC)CC)cc2)cn1-c1ccc(Oc2ccc(Cl)cc2)cc1` [Example 7, (R)-1-(4-{1-[4-(4-chloro-phenoxy)-phenyl]-2-ethoxymethyl-1H-imidazol-4-yl}-phenoxy)-3-diethylamino-propan-2-ol dihydrochloride] were 1380 ng/g, 0.153 µg/mL, 9.1, 1.17 µM and 1.05 µM.
Regarding `CCOCc1nc(-c2ccc(OC[C@@H](O)CNC)cc2)cn1-c1ccc(Oc2ccc(Cl)cc2)cc1` [Example 14, (S)-1-(4-{1-[4-(4-chloro-phenoxy)-phenyl]-2-ethoxymethyl-1H-imidazol-4-yl}-phenoxy)-3-methylamino-propan-2-ol dihydrochloride], the concentration for half-maximal inhibition (IC50) was 2.37 µM in data set [1] and 4.56 µM in data set [2].
On to `CCOCc1nc(-c2ccc(OC[C@H](O)CN(C)C)cc2)cn1-c1ccc(Oc2ccc(Cl)cc2)cc1` [Example 5, (R)-1-(4-{1-[4-(4-chloro-phenoxy)-phenyl]-2-ethoxymethyl-1H-imidazol-4-yl}-phenoxy)-3-dimethylamino-propan-2-ol dihydrochloride], for which the values for the concentration at 6 h in data set [3] (setting [4]) and in data set [3] (setting [5]) were 3320 ng/g and 0.2 µg/mL, respectively. For the same compound, the Kp at 6 h in data set [3] turned out to be 16.7. For the same compound, the values for the IC50 in data set [1] and in data set [2] were 1.02 µM and 0.71 µM, respectively.
`CCCCc1nc(-c2ccc(OC[C@H](O)CNC)cc2)cn1-c1ccc(Oc2ccc(Cl)cc2)cc1` [Example 9, (R)-1-(4-{2-butyl-1-[4-(4-chloro-phenoxy)-phenyl]-1H-imidazol-4-yl}-phenoxy)-3-methylamino-propan-2-ol dihydrochloride]: the concentration at 6 h in data set [3] (setting [4]) worked out at 537 ng/g; in data set [3] (setting [5]) it was 0.076 µg/mL. Moreover, the Kp at 6 h in data set [3] turned out to be 7.2. Besides, the half-inhibitory concentration (IC50) in data set [1] was found to be 1.59 µM; in data set [2], 1.13 µM.
Regarding `CCNC[C@H](O)COc1ccc(-c2cn(-c3ccc(Oc4ccc(Cl)cc4)cc3)c(COCC)n2)cc1` [Example 16, (S)-1-(4-{1-[4-(4-chloro-phenoxy)-phenyl]-2-ethoxymethyl-1H-imidazol-4-yl}-phenoxy)-3-ethylamino-propan-2-ol dihydrochloride], the figures for the IC50 in data set [1] and in data set [2] were 1.55 µM and 3.13 µM, respectively.
`CCNC[C@@H](O)COc1ccc(-c2cn(-c3ccc(Oc4ccc(Cl)cc4)cc3)c(COCC)n2)cc1` [Example 15, (R)-1-(4-{1-[4-(4-chloro-phenoxy)-phenyl]-2-ethoxymethyl-1H-imidazol-4-yl}-phenoxy)-3-ethylamino-propan-2-ol dihydrochloride]: the results for the IC50 in data set [1] and in data set [2] were 2.47 µM and 3.14 µM, respectively.
